Results published in the NIST ThermoML archive (doi:10.1021/je060271a).

Settings: 343.14 K, Liquid, Vibrating tube method

CCCCCCC(=O)OCC(COC(=O)CCCCCC)(COC(=O)CCCCCC)COC(=O)CCCCCC [pentaerythritol tetraheptanoate]
Settings	mass density [kg/m3]
18157 kPa	953.7
18178 kPa	953.7
18297 kPa	953.7
18319 kPa	953.8
18346 kPa	953.8
18368 kPa	953.7
18394 kPa	953.9
18417 kPa	953.8
18440 kPa	953.8
18467 kPa	954
18490 kPa	953.8
18513 kPa	953.9
18736 kPa	954
18759 kPa	954.1
18788 kPa	954.2
18811 kPa	954.1
18834 kPa	954.2
18863 kPa	954.2
18886 kPa	954.2
18911 kPa	954.2
18939 kPa	954.2
18963 kPa	954.3
18988 kPa	954.2
19016 kPa	954.2
19305 kPa	954.6
19330 kPa	954.5
19356 kPa	954.5
19386 kPa	954.6
19411 kPa	954.6
19743 kPa	954.6
19769 kPa	954.7
19796 kPa	954.8
19828 kPa	954.7
19854 kPa	954.8
19881 kPa	954.8
19913 kPa	954.8
19941 kPa	954.8
19968 kPa	954.8
19994 kPa	954.9
20028 kPa	954.9
20054 kPa	955
20087 kPa	954.9
20115 kPa	955
20142 kPa	955
20169 kPa	955.2
20203 kPa	955.1
20230 kPa	955.1
20258 kPa	955.1
20441 kPa	955.3
20475 kPa	955.2
20533 kPa	955.4
20567 kPa	955.3
20596 kPa	955.3
20625 kPa	955.3
20660 kPa	955.3
20722 kPa	955.3
20752 kPa	955.5
20817 kPa	955.5
20847 kPa	955.4
20877 kPa	955.4
20907 kPa	955.5
20942 kPa	955.6
20972 kPa	955.5
21003 kPa	955.6
21039 kPa	955.6
21133 kPa	955.6
21170 kPa	955.7
21200 kPa	955.8
21230 kPa	955.8
21267 kPa	955.7
21298 kPa	955.9
21330 kPa	955.8
21368 kPa	955.8
21399 kPa	955.8
21431 kPa	955.9
21462 kPa	955.8
21500 kPa	956
21533 kPa	955.8
21565 kPa	956
21597 kPa	956
21636 kPa	955.9
21669 kPa	956
21702 kPa	956
21740 kPa	956
21773 kPa	956
21806 kPa	956.1
21839 kPa	956.1
21878 kPa	956.2
21912 kPa	956.2
21946 kPa	956.2
21986 kPa	956.1
22020 kPa	956.3
22053 kPa	956.2
22086 kPa	956.1
22236 kPa	956.4
22270 kPa	956.5
22311 kPa	956.5
22345 kPa	956.4
22380 kPa	956.5
22421 kPa	956.5
22456 kPa	956.5
22491 kPa	956.6
22526 kPa	956.5
22569 kPa	956.6
22604 kPa	956.6
22640 kPa	956.7
22675 kPa	956.7
22776 kPa	956.7
22834 kPa	956.7
22870 kPa	956.8
22914 kPa	956.8
22950 kPa	956.8
